pIC50: −log10 of the molar value. Like-named read-outs stand apart in the source and are kept apart here.
Experiments:
[1] = molecular target: GSK3α (GST-full length GSK3α) (Homo sapiens (Human), UniProt P49840); experiment: GSK3α TR-FRET kinase assay; format: biochemical
Procedure, shortened: (§1)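 IC50s came from the normalized 665/615 TR-FRET ratio after Tb-anti-pSer641 antibody and streptavidin-d2 detection of phosphorylated biotin-glycogen synthase peptide (200 nM). ATP was 4 μM for GSK3α, 2 μM for GSK3b, or 1 mM; 1 nM enzyme, 100 min, ambient, pH 7.5, after 30-min compound preincubation.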

[2] = molecular target: GSK3b (GST-full length GSK3b) (Homo sapiens (Human), UniProt P49841); experiment: GSK3b TR-FRET kinase assay; format: biochemical
Procedure, shortened: as §1

[3] = 1 nM GSK3α, 4 μM ATP, 30 minute preincubation, Table 16, read-out: GSK3-A TR-FRET BIOCHEMICAL (TR-FRET), IC50
[4] = 1 nM GSK3b, 2 μM ATP, 30 minute preincubation, Table 16, read-out: GSK3-B TR-FRET BIOCHEMICAL (TR-FRET), IC50
[5] = read-out: GSK3-A (TR-FRET 1 mM ATP), GMean, IC50, 1 mM ATP, geometric mean
[6] = read-out: GSK3-B (TR-FRET 1 mM ATP), GMean, IC50, 1 mM ATP, geometric mean
[7] = 1 nM GSK3α, 4 μM ATP, 30 minute preincubation, Table 16, read-out: GSK3-A TR-FRET BIOCHEMICAL (TR-FRET)
[8] = 1 nM GSK3b, 2 μM ATP, 30 minute preincubation, Table 16, read-out: GSK3-B TR-FRET BIOCHEMICAL (TR-FRET)

Sequence of GSK3b (GST-full length GSK3b) (P49841 whole entry): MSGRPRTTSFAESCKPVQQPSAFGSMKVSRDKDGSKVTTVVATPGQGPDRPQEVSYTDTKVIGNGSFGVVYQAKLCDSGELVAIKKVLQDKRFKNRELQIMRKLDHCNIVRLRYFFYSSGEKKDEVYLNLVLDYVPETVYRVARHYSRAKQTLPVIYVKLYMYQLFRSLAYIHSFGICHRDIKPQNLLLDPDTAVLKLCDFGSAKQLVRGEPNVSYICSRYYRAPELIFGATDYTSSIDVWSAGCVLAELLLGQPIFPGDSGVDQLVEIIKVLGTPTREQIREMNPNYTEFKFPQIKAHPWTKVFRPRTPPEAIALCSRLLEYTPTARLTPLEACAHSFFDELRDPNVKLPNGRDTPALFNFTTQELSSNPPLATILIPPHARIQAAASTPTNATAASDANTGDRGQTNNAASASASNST
Sequence of GSK3α (GST-full length GSK3α) (P49840 whole entry): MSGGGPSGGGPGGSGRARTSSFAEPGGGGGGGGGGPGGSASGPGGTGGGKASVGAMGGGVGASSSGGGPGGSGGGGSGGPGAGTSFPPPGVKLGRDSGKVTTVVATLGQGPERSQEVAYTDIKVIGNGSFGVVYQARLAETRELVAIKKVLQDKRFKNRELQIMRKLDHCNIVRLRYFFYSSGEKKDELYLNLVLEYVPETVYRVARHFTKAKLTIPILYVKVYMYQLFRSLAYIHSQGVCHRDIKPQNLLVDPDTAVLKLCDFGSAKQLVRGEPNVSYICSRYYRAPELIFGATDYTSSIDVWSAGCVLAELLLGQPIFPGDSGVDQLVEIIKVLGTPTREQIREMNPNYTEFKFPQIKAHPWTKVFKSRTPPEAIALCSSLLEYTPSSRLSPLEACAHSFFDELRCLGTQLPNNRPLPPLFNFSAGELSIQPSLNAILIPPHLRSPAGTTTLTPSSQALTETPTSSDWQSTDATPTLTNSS

Compound	pIC50 [1, 3]	pIC50 [2, 4]	also measured
CCC1(c2cccc(C3CCC3)c2)C2=C(CC(C)(C)CC2=O)Nc2n[nH]cc21 (stereo not shown) [Compound 949514]	5.30 to 6.00	< 5.30	
CC[C@@]1(c2cccc(-c3cnn(-c4cccnc4)c3)c2)C2=C(CC(C)(C)NC2=O)Nc2n[nH]cc21 [Compound 949515]	< 5.30	< 5.30	
CC[C@@]1(c2cccc(-c3ccncc3C(F)(F)F)c2)C2=C(CC(C)(C)NC2=O)Nc2n[nH]cc21 [Compound 949516]	5.30 to 6.00	< 5.30	
CC[C@@]1(c2cccc(-c3ccnn3C3CC3(F)F)c2)C2=C(CC(C)(C)NC2=O)Nc2n[nH]cc21 (stereo partly shown) [Compound 949518]	6.00 to 7.00	< 5.30	
CC[C@@]1(c2cccc(-c3cnn(-c4ccccc4)c3F)c2)C2=C(CC(C)(C)NC2=O)Nc2n[nH]cc21 [Compound 949519]	< 5.30	< 5.30	
CC[C@]1(c2cccc(-c3ccnc(C)c3)c2)C2=C(CC3(CCC3)NC2=O)Nc2n[nH]cc21 [Compound 949520]	≥ 7.00	6.00 to 7.00	
CC[C@@]1(c2cccc(C3CCC3)c2)C2=C(CC(C)(C)CC2=O)Nc2n[nH]cc21 [Compound 949521]	≥ 7.00	≥ 7.00	pIC50 [1, 5]: 6.00 to 7.00; pIC50 [2, 6]: 5.30 to 6.00
CC[C@@]1(c2cccc(C(F)(F)F)c2)C2=C(CCN(CCOC)C2=O)Nc2n[nH]cc21 [Compound 949599]	6.00 to 7.00	6.00 to 7.00	
CC[C@]1(c2cccc(C(F)(F)F)c2)C2=C(CCN(CCOC)C2=O)Nc2n[nH]cc21 [Compound 949600]	< 5.30	< 5.30	
CCC1(c2cccc(C(F)(F)F)c2)C2=C(CCC2=O)Nc2n[nH]cc21 (stereo not shown) [Compound 949639]	6.00 to 7.00	6.00 to 7.00	
CC1CCC12C1=C(CC(C)(C)CC1=O)Nc1n[nH]cc12 (stereo not shown) [Compound 949640]			pIC50 [1, 7]: 6.00 to 7.00; pIC50 [2, 8]: 5.30 to 6.00
CCC1(c2cccc(C(F)(F)F)c2)C2=C(CCN(c3cn(C)nc3C)C2=O)Nc2n[nH]cc21 (stereo not shown) [Compound 949641]	< 5.30	< 5.30	
CC[C@]1(c2cccc(-c3ccncc3F)c2)C2=C(CC(C)(C)NC2=O)Nc2n[nH]c(F)c21 [Compound 949643]	< 5.30	< 5.30	
CC[C@]1(c2cccc(-c3cc(C)ncc3F)c2)C2=C(CC(C)(C)NC2=O)Nc2n[nH]c(C(F)(F)F)c21 [Compound 949644]	6.00 to 7.00	5.30 to 6.00	
CC[C@@]1(c2cccc(C(C)C)c2)C2=C(CC(C)(C)NC2=O)Nc2n[nH]c(C)c21 [Compound 949646]	< 5.30	< 5.30	
CC[C@@]1(c2cccc(N(C)c3ncccn3)c2)C2=C(CC(C)(C)NC2=O)Nc2n[nH]c(F)c21 [Compound 949648]	≥ 7.00	≥ 7.00	pIC50 [1, 5]: ≥ 7.00; pIC50 [2, 6]: 5.30 to 6.00
CC[C@]1(c2cccc(C(C)C)c2)C2=C(CC(C)(C)NC2=O)Nc2n[nH]c(C)c21 [Compound 949649]	≥ 7.00	≥ 7.00	pIC50 [1, 5]: 6.00 to 7.00; pIC50 [2, 6]: 5.30 to 6.00
CC[C@@]1(c2cccc(-c3cc(C)ncc3F)c2)C2=C(CC(C)(C)NC2=O)Nc2n[nH]c(C(F)(F)F)c21 [Compound 949650]	≥ 7.00	≥ 7.00	pIC50 [1, 5]: 6.00 to 7.00; pIC50 [2, 6]: 5.30 to 6.00
CCC1(c2cccc(-c3ccncc3F)c2)C2=C(CC(C)(C)NC2=O)Nc2n[nH]c(F)c21 (stereo not shown) [Compound 949651]	≥ 7.00	≥ 7.00	pIC50 [1, 5]: 6.00 to 7.00; pIC50 [2, 6]: < 5.30
CC[C@@]1(c2cccc(C(F)(F)F)c2)C2=C(Nc3n[nH]cc31)c1ccccc1C2=O [Compound 949742]	6.00 to 7.00	6.00 to 7.00	
CC[C@]1(c2ccccc2)C2=C(C[C@@]3(CCN(C)C3=O)CC2=O)Nc2n[nH]cc21 [Compound 949753]			pIC50 [1, 7]: 5.30 to 6.00; pIC50 [2, 8]: < 5.30
CC[C@]1(c2ccccc2)C2=C(C[C@]3(CCN(C)C3=O)CC2=O)Nc2n[nH]cc21 [Compound 949754]			pIC50 [1, 7]: < 5.30; pIC50 [2, 8]: < 5.30
CC[C@@]1(c2ccccc2)C2=C(C[C@]3(CCN(C)C3=O)CC2=O)Nc2n[nH]cc21 [Compound 949759]			pIC50 [1, 7]: < 5.30; pIC50 [2, 8]: < 5.30
CC[C@@]1(c2ccccc2)C2=C(C[C@@]3(CCN(C)C3=O)CC2=O)Nc2n[nH]cc21 [Compound 949760]			pIC50 [1, 7]: 6.00 to 7.00; pIC50 [2, 8]: < 5.30

More lines, main results first:

pIC50 [1, 3]	pIC50 [2, 4]	Compound	also measured
≥ 7.00	≥ 7.00	CC[C@]1(c2cccc(C(F)(F)F)c2)C2=C(Nc3n[nH]cc31)c1ccccc1C2=O [Compound 949743]	pIC50 ([1]; GSK3-A (TR-FRET 1 mM ATP), GMean, IC50, 1 mM ATP, geometric mean): ≥ 7.00; pIC50 ([2]; GSK3-B (TR-FRET 1 mM ATP), GMean, IC50, 1 mM ATP, geometric mean): 6.00 to 7.00
≥ 7.00	≥ 7.00	CCC1(c2cccc(C(C)C)c2)C2=C(CC(C)(C)NC2=O)Nc2n[nH]c(C(F)(F)F)c21 (stereo not shown) [Compound 949747]	
≥ 7.00	6.00 to 7.00	CCC1(c2cccc(OC)c2)C2=C(CC(C)(C)NC2=O)Nc2n[nH]c(C(F)(F)F)c21 (stereo not shown) [Compound 949748]	
< 5.30	< 5.30	CC[C@]1(c2cccc(C(C)C)c2)C2=C(CC(C)(C)NC2=O)Nc2n[nH]cc21 [Compound 949752]	
< 5.30	< 5.30	CC[C@]1(c2cccc(-c3ccncc3F)c2)C2=C(CC(C)(C)NC2=O)Nc2n[nH]c(Cl)c21 [Compound 949756]	
≥ 7.00	≥ 7.00	CC[C@@]1(c2cccc(-c3ccncc3F)c2)C2=C(CC(C)(C)NC2=O)Nc2n[nH]c(Cl)c21 [Compound 949757]	pIC50 [1, 5]: 6.00 to 7.00; pIC50 [2, 6]: 5.30 to 6.00
≥ 7.00	6.00 to 7.00	CCC1(c2cccc(C(C)C)c2)C2=C(CC(C)(C)NC2=O)Nc2n[nH]cc21 (stereo not shown) [Compound 949761]	pIC50 [1, 5]: 6.00 to 7.00; pIC50 [2, 6]: < 5.30
6.00 to 7.00	5.30 to 6.00	CCC1(c2cccc(Br)c2)C2=C(CC(C)(C)C2=O)Nc2n[nH]cc21 (stereo not shown) [Compound 949805]	
≥ 7.00	6.00 to 7.00	CCC1(c2cccc(C(F)(F)F)c2)C2=C(CCN(c3ccn(C)n3)C2=O)Nc2n[nH]cc21 (stereo not shown) [Compound 949835]	
5.30 to 6.00	< 5.30	CC[C@]1(c2cccc(C(F)(F)F)c2)C2=C(CCN(c3ccn(C)n3)C2=O)Nc2n[nH]cc21 [Compound 949836]	
6.00 to 7.00	5.30 to 6.00	CCC1(c2cccc(-c3ccnc(C)c3)c2)C2=C(CC(C)(C)C2=O)Nc2n[nH]cc21 (stereo not shown) [Compound 949840]	
≥ 7.00	6.00 to 7.00	CCn1cc(N2CCC3=C(C2=O)[C@](CC)(c2cccc(C(F)(F)F)c2)c2c[nH]nc2N3)cn1 [Compound 949867]	
6.00 to 7.00	< 5.30	CCn1cc(N2CCC3=C(C2=O)[C@](CC)(c2cccc(C(F)(F)F)c2)c2c[nH]nc2N3)cn1 [Compound 949868]	
≥ 7.00	≥ 7.00	CCC1(c2cccc(-c3cc(C)nnc3C)c2)C2=C(CC(C)(C)NC2=O)Nc2n[nH]c(C(F)(F)F)c21 (stereo not shown) [Compound 949910]	
6.00 to 7.00	< 5.30	CC[C@]1(c2cccc(-c3cnn(C)c3)c2)C2=C(CC(C)(C)NC2=O)Nc2n[nH]c(C(F)F)c21 [Compound 949911]	
≥ 7.00	≥ 7.00	CC[C@@]1(c2cccc(-c3cnn(C)c3)c2)C2=C(CC(C)(C)NC2=O)Nc2n[nH]c(C(F)F)c21 [Compound 949919]	pIC50 [1, 5]: ≥ 7.00; pIC50 [2, 6]: 6.00 to 7.00
≥ 7.00	6.00 to 7.00	CC[C@]1(c2cccc(-c3cnn(C4CC4(F)F)c3)c2)C2=C(CC(C)(C)NC2=O)Nc2n[nH]cc21 (stereo partly shown) [Compound 950060]	

Reference: patent US20250313563A1, “GLYCOGEN SYNTHASE KINASE 3 INHIBITORS AND USES THEREOF” (The Broad Institute, Inc., priority 2022, published 2025)
